Publication PMC9014415, “Repositioning of a Diaminothiazole Series Confirmed to Target the Cyclin-Dependent Kinase CRK12 for Use in the Treatment of African Animal Trypanosomiasis” (Journal of Medicinal Chemistry, 2022)

Assays:
[1] = Mouse liver microsome stability; format: in vitro ADME; conditions: intrinsic clearance
Protocol: solubility method,5 the long shaking times appear to give solubility values that more closely reflect those made from solid samples (unpublished in-house data).
2.2 Microsomal stability studies
(a) Mouse liver microsome stability. These methods have been previously reported.6
(b) Bovine liver microsome stability. Test compounds (0.5 µM) were incubated with 0.5 mg/mL bovine liver microsomes (Xenotech LLC TM) in 50 mM potassium phosphate buffer, pH7.4 and the reaction initiated upon addition of excess NADPH (8 mg/mL in 50 mM potassium phosphate buffer, pH7.4).
Aliquots (50 µL) of the incubation mixture were taken at time zero, 3, 6, 9, 15 and 30 min then mixed with acetonitrile (100 µL) to stop the reaction. An internal standard was added to all samples, prior to centrifugation (10 min, 1,665 g, RT) to sediment precipitated protein. Reaction plates were then sealed prior to UPLCMSMS analysis using a Quattro Premier XE (Waters corporation, USA).
XLfit (IDBS, UK) was used to calculate the exponential decay and consequently the rate constant (k) from the ratio of peak area of test compound to internal standard at each timepoint. The rate of intrinsic clearance (CLi) of each test compound was then calculated using the following […]
CLi(mL/min/g liver) = k x V x microsomal protein yield […]

[2] = test system: T. vivax (STIB719); test: Cattle efficacy for compound 2, intravenous infusion (Clinvet), T. vivax; format: in vivo, Trypanosoma vivax; conditions: Friesian-Holstein cattle infected with T. vivax; n = 4; at 100 days
Protocol: Unfortunately, an injection site tolerability issue arose during the pharmacokinetic study in cattle that was not evident in rats. […] To circumvent these issues, compound 2 was assessed in an in vivo proof of concept efficacy study in Friesian-Holstein cattle using an IV infusion regimen. The study was conducted in four animals infected with T. congolense (KONT2/133) and four animals infected with T. vivax (STIB719). Three additional animals infected with each strain formed the vehicle control groups and were dosed IV once daily with saline. Pharmacokinetic modeling was used to define a dosing regimen that mimics the blood concentration–time profile that delivered cure in mice (10 mg/kg SC once daily for 2 days, with a Ctrough of >20 ng/mL (>38 nM)). A continuous infusion over 36 h and two loading doses 24 h apart were required. […]
Response to treatment was determined by monitoring parasitaemia twice a week until day 21. […]
In each of the cattle efficacy studies (3.3, 3.4 and 3.5), efficacy was assessed primarily on absence of recrudescence of parasitaemia for 100 days after treatment administration together with improvements in Packed Cell Volume, body weight and clinical signs of infected compared with uninfected animals. […]

[3] = test system: T. congolense; test: Microcalorimetry of parasite growth; format: cell-based, Trypanosoma congolense
Protocol: These observations offer confidence that rats can be used as a model animal in the drug development path going forward prior to studies in cattle. Exposure following IM injection in rats was sufficient to warrant progression to cattle efficacy studies, although the short half-life raised concerns that the required time above the EC99 blood concentration may not be sufficient for cure following a single IM dose at 10 mg/kg.

Compound	Mouse Microsome Cli [1] [mL/min/g]	Efficacy in cattle, IV bolus and infusion [2]	Effect on parasites, microcalorimetry ([3]; 10 ng/mL)	Effect on parasites, microcalorimetry ([3]; 30 ng/mL)	Effect on parasites, microcalorimetry ([3]; 100 ng/mL)
CC(C)CS(=O)(=O)N[C@H]1CC[C@H](Nc2nc(N)c(C(=O)c3c(F)cccc3F)s2)CC1 [Compound 1, N-((trans)-4-((4-Amino-5-(2,6-difluorobenzoyl)thiazol-2-yl)amino)cyclohexyl)-2-methylpropane-1-sulfonamide]	11				
CC(C)CS(=O)(=O)N[C@H]1CC[C@H](Nc2nc(N)c(C(=O)c3c(F)cc(CN(C)C)cc3F)s2)CC1 [Compound 2, N-(trans)-[4-[[4-Amino-5-[4-(dimethylaminomethyl)-2,6-difluoro-benzoyl]thiazol-2-yl]amino]cyclohexyl]-2-methyl-propane-1-sulfonamide]		cured	slowed parasite growth	rapid kill	rapid kill
